Data reported in patent US10442807B2, “Aryl substituted bicyclic compounds as herbicides” (FMC Corporation, priority 2015, dated 2019).

What was measured:
Type in all cases: in vivo
[1] = test system: sedge, umbrella (small-flower umbrella sedge, Cyperus difformis); assay: Test B flooded paddy test, visual plant response rating; conditions: 250 g ai/ha; applied to paddy water at 2-leaf stage; rated after 13 to 15 days; scale 0 to 100, 0 is no effect, 100 is complete control
Description: (§1) At time of treatment, test pots were flooded to 3 cm above the soil surface, treated by application of test compounds directly to the paddy water, and then maintained at that water depth for the duration of the test. Treated plants and controls were maintained in a greenhouse for 13 to 15 days, after which time all species were compared to controls and visually evaluated. Plant response ratings, summarized in Table B, are based on a scale of 0 to 100 where 0 is no effect and 100 is complete control. A dash (-) response means no test result.

[2] = test system: barnyardgrass (Echinochloa crus-galli); assay: as above; conditions: 250 g ai/ha; applied to paddy water at 2-leaf stage; rated after 13 to 15 days; scale 0 to 100, 0 is no effect, 100 is complete control
Description: as §1

[3] = test system: ducksalad (Heteranthera limosa); assay: as above; conditions: 250 g ai/ha; applied to paddy water at 2-leaf stage; rated after 13 to 15 days; scale 0 to 100, 0 is no effect, 100 is complete control
Description: as §1

[4] = test system: rice (Oryza sativa); assay: as above; conditions: 250 g ai/ha; applied to paddy water at 2-leaf stage; rated after 13 to 15 days; scale 0 to 100, 0 is no effect, 100 is complete control
Description: as §1

[5] = test system: kochia (Kochia scoparia); assay: Test A postemergence application, visual injury rating; conditions: approx. 10 d, 0 = no effect, 100 = complete control
Description: (§2) Seeds of plant species selected from barnyardgrass (Echinochloa crus-galli), kochia (Kochia scoparia), ragweed (common ragweed, Ambrosia elation), ryegrass, Italian (Italian ryegrass, Lolium multiflorum), foxtail, giant (giant foxtail, Setaria faberii), and pigweed (Amaranthus retroflexus), were planted into a blend of loam soil and sand and treated preemergence with a directed soil spray using test chemicals formulated in a non-phytotoxic solvent mixture which included a surfactant. At the same time, plants selected from these weed species and also blackgrass (Alopecurus myosuroides), galium (catchweed bedstraw, Galium aparine), wheat (Triticum aestivum), and corn (Zea mays) were planted in pots containing the same blend of loam soil and sand and treated with postemergence applications of test chemicals formulated in the same manner. Plants ranged in height from 2 to 10 cm and were in the one- to two-leaf stage for the postemergence treatment. Treated plants and untreated controls were maintained in a greenhouse for approximately 10 d, after which time all treated plants were compared to untreated controls and visually evaluated for injury. Plant response ratings, summarized in Table A, are based on a 0 to 100 scale where 0 is no effect and 100 is complete control. A dash (-) response means no test result.

[6] = test system: foxtail, giant (giant foxtail, Setaria faberii); assay: as above; conditions: approx. 10 d, 0 = no effect, 100 = complete control
Description: as §2

[7] = test system: ryegrass, Italian (Italian ryegrass, Lolium multiflorum); assay: as above; conditions: approx. 10 d, 0 = no effect, 100 = complete control
Description: as §2

[8] = test system: blackgrass (Alopecurus myosuroides); assay: as above; conditions: approx. 10 d, 0 = no effect, 100 = complete control
Description: as §2

[9] = test system: ragweed (common ragweed, Ambrosia elation); assay: as above; conditions: approx. 10 d, 0 = no effect, 100 = complete control
Description: as §2

[10] = test system: corn (Zea mays); assay: as above; conditions: approx. 10 d, 0 = no effect, 100 = complete control
Description: as §2

[11] = test system: barnyardgrass (Echinochloa crus-galli); assay: as above; conditions: approx. 10 d, 0 = no effect, 100 = complete control
Description: as §2

[12] = test system: pigweed (Amaranthus retroflexus); assay: as above; conditions: approx. 10 d, 0 = no effect, 100 = complete control
Description: as §2

[13] = test system: wheat (Triticum aestivum); assay: as above; conditions: approx. 10 d, 0 = no effect, 100 = complete control
Description: as §2

[14] = test system: galium (catchweed bedstraw, Galium aparine); assay: as above; conditions: approx. 10 d, 0 = no effect, 100 = complete control
Description: as §2

[15] = test system: kochia (Kochia scoparia); assay: Test A preemergence, directed soil spray, visual injury rating; conditions: approx. 10 d, 0 = no effect, 100 = complete control
Description: as §2

[16] = test system: foxtail, giant (giant foxtail, Setaria faberii); assay: as above; conditions: approx. 10 d, 0 = no effect, 100 = complete control
Description: as §2

[17] = test system: ryegrass, Italian (Italian ryegrass, Lolium multiflorum); assay: as above; conditions: approx. 10 d, 0 = no effect, 100 = complete control
Description: as §2

[18] = test system: ragweed (common ragweed, Ambrosia elation); assay: as above; conditions: approx. 10 d, 0 = no effect, 100 = complete control
Description: as §2

[19] = test system: barnyardgrass (Echinochloa crus-galli); assay: as above; conditions: approx. 10 d, 0 = no effect, 100 = complete control
Description: as §2

[20] = test system: pigweed (Amaranthus retroflexus); assay: as above; conditions: approx. 10 d, 0 = no effect, 100 = complete control
Description: as §2

| Structure (SMILES) | Plant response rating, Flood, Sedge, Umbrella [1] | Plant response rating, Flood, Barnyardgrass [2] | Plant response rating, Flood, Ducksalad [3] | Plant response rating, Flood, Rice [4] | Kochia plant response rating (0 to 100 scale) ([5]; 125 g ai/ha) | Kochia plant response rating (0 to 100 scale) ([5]; 500 g ai/ha) | Foxtail, Giant plant response rating (0 to 100 scale) ([6]; 125 g ai/ha) | Foxtail, Giant plant response rating (0 to 100 scale) ([6]; 500 g ai/ha) | Ryegrass, Italian plant response rating (0 to 100 scale) ([7]; 125 g ai/ha) | Ryegrass, Italian plant response rating (0 to 100 scale) ([7]; 500 g ai/ha) | Blackgrass plant response rating (0 to 100 scale) ([8]; 125 g ai/ha) | Blackgrass plant response rating (0 to 100 scale) ([8]; 500 g ai/ha) | Ragweed plant response rating (0 to 100 scale) ([9]; 125 g ai/ha) | Ragweed plant response rating (0 to 100 scale) ([9]; 500 g ai/ha) | Corn plant response rating (0 to 100 scale) ([10]; 125 g ai/ha) | Corn plant response rating (0 to 100 scale) ([10]; 500 g ai/ha) | Barnyardgrass plant response rating (0 to 100 scale) ([11]; 125 g ai/ha) | Barnyardgrass plant response rating (0 to 100 scale) ([11]; 500 g ai/ha) | Pigweed plant response rating (0 to 100 scale) ([12]; 125 g ai/ha) | Pigweed plant response rating (0 to 100 scale) ([12]; 500 g ai/ha) | also measured |
| --- | --- | --- | --- | --- | --- | --- | --- | --- | --- | --- | --- | --- | --- | --- | --- | --- | --- | --- | --- | --- | --- |
| O=C(Nc1cccc(F)c1F)C1c2nncn2CC1c1ccc(C(F)(F)F)cc1 (stereo not drawn) [Compound 12] | 0 | 0 | 75 | 0 | 20 | 60 | 30 | 90 | 0 | 60 | 0 | 60 | 0 | 50 | 0 | 60 | 30 | 90 | 0 | 70 | Wheat plant response rating (0 to 100 scale) ([13]; 125 g ai/ha): 0; Wheat plant response rating (0 to 100 scale) ([13]; 500 g ai/ha): 40; Galium plant response rating (0 to 100 scale) ([14]; 125 g ai/ha): 30; Galium plant response rating (0 to 100 scale) ([14]; 500 g ai/ha): 70; Kochia plant response rating (0 to 100 scale) ([15]; 125 g ai/ha): 30; Kochia plant response rating (0 to 100 scale) ([15]; 500 g ai/ha): 80; Foxtail, Giant plant response rating (0 to 100 scale) ([16]; 125 g ai/ha): 90; Foxtail, Giant plant response rating (0 to 100 scale) ([16]; 500 g ai/ha): 90; Ryegrass, Italian plant response rating (0 to 100 scale) ([17]; 125 g ai/ha): 40; Ryegrass, Italian plant response rating (0 to 100 scale) ([17]; 500 g ai/ha): 60; Ragweed plant response rating (0 to 100 scale) ([18]; 125 g ai/ha): 0; Ragweed plant response rating (0 to 100 scale) ([18]; 500 g ai/ha): 50; Barnyardgrass plant response rating (0 to 100 scale) ([19]; 125 g ai/ha): 20; Barnyardgrass plant response rating (0 to 100 scale) ([19]; 500 g ai/ha): 80; Pigweed plant response rating (0 to 100 scale) ([20]; 125 g ai/ha): 30; Pigweed plant response rating (0 to 100 scale) ([20]; 500 g ai/ha): 80 |
| O=C(Nc1cccc(F)c1F)C1c2nnc(C(F)(F)F)n2CC1c1ccc(C(F)(F)F)cc1 (stereo not drawn) [Compound 22, N-(2,3-difluorophenyl)-6,7-dihydro-3-(trifluoromethyl)-6-[4-(trifluoromethyl)phenyl]-5H-pyrrolo[2,1-c]-1,2,4-triazole-7-carboxamide] | 0 | 0 | 30 | 0 | 0 | 0 | 0 | 0 | 0 | 0 | 0 | 0 | 0 | 0 | 0 | 0 | 0 | 0 | 0 | 0 | Wheat plant response rating (0 to 100 scale) ([13]; 125 g ai/ha): 0; Wheat plant response rating (0 to 100 scale) ([13]; 500 g ai/ha): 0; Galium plant response rating (0 to 100 scale) ([14]; 125 g ai/ha): 0; Galium plant response rating (0 to 100 scale) ([14]; 500 g ai/ha): 0; Kochia plant response rating (0 to 100 scale) ([15]; 125 g ai/ha): 0; Kochia plant response rating (0 to 100 scale) ([15]; 500 g ai/ha): 0; Foxtail, Giant plant response rating (0 to 100 scale) ([16]; 125 g ai/ha): 0; Foxtail, Giant plant response rating (0 to 100 scale) ([16]; 500 g ai/ha): 30; Ryegrass, Italian plant response rating (0 to 100 scale) ([17]; 125 g ai/ha): 0; Ryegrass, Italian plant response rating (0 to 100 scale) ([17]; 500 g ai/ha): 0; Ragweed plant response rating (0 to 100 scale) ([18]; 125 g ai/ha): 0; Ragweed plant response rating (0 to 100 scale) ([18]; 500 g ai/ha): 0; Barnyardgrass plant response rating (0 to 100 scale) ([19]; 125 g ai/ha): 0; Barnyardgrass plant response rating (0 to 100 scale) ([19]; 500 g ai/ha): 20; Pigweed plant response rating (0 to 100 scale) ([20]; 125 g ai/ha): 0; Pigweed plant response rating (0 to 100 scale) ([20]; 500 g ai/ha): 0 |
| CCc1ccc(C2Cn3c(C)nnc3C2C(=O)Nc2ccccc2SC)cc1 (stereo not drawn) [Compound 15] | 0 | 0 | 50 | 20 | 0 | 0 | 0 | 0 | 0 | 0 | 0 | 0 | 0 | 0 | 0 | 0 | 0 | 0 | 0 | 0 | Wheat plant response rating (0 to 100 scale) ([13]; 125 g ai/ha): 0; Wheat plant response rating (0 to 100 scale) ([13]; 500 g ai/ha): 0; Galium plant response rating (0 to 100 scale) ([14]; 125 g ai/ha): 0; Galium plant response rating (0 to 100 scale) ([14]; 500 g ai/ha): 0; Kochia plant response rating (0 to 100 scale) ([15]; 125 g ai/ha): 0; Kochia plant response rating (0 to 100 scale) ([15]; 500 g ai/ha): 0; Foxtail, Giant plant response rating (0 to 100 scale) ([16]; 125 g ai/ha): 0; Foxtail, Giant plant response rating (0 to 100 scale) ([16]; 500 g ai/ha): 0; Ryegrass, Italian plant response rating (0 to 100 scale) ([17]; 125 g ai/ha): 0; Ryegrass, Italian plant response rating (0 to 100 scale) ([17]; 500 g ai/ha): 0; Ragweed plant response rating (0 to 100 scale) ([18]; 125 g ai/ha): 0; Ragweed plant response rating (0 to 100 scale) ([18]; 500 g ai/ha): 0; Barnyardgrass plant response rating (0 to 100 scale) ([19]; 125 g ai/ha): 0; Barnyardgrass plant response rating (0 to 100 scale) ([19]; 500 g ai/ha): 0; Pigweed plant response rating (0 to 100 scale) ([20]; 125 g ai/ha): 0; Pigweed plant response rating (0 to 100 scale) ([20]; 500 g ai/ha): 0 |
